Data from patent publication US8664219B2, “Aminopyrimidines useful as inhibitors of protein kinases” (Vertex Pharmaceuticals Incorporated, priority 2007, dated 2014).
pIC50, pKi: −log10 of the molar value.

Key:
GSK-3β (AA 1-420) = GSK-3β (AA 1-420) (Homo sapiens (Human), UniProt P49841); experiment: GSK-3 inhibition assay (standard coupled enzyme system); type: biochemical; settings: 20 μM ATP, 300 μM peptide, 20 nM GSK-3β, 30° C.
Protocol: Compounds of the present invention were screened for their ability to inhibit GSK-3β (AA 1-420) activity using a standard coupled enzyme system (Fox et al., Protein Sci. 1998, 7, 2249). Reactions were carried out in a solution containing 100 mM HEPES (pH 7.5), 10 mM MgCl2, 25 mM NaCl, 300 μM NADH, 1 mM DTT and 1.5% DMSO. Final substrate concentrations in the assay were 20 μM ATP (Sigma Chemicals, St Louis, Mo.) and 300 μM peptide (American Peptide, Sunnyvale, Calif.). Reactions were carried out at 30° C. and 20 nM GSK-3β. Final concentrations of the components of the coupled enzyme system were 2.5 mM phosphoenolpyruvate, 300 μM NADH, 30 μg/ml pyruvate kinase and 10 μg/ml lactate dehydrogenase.
An assay stock buffer solution was prepared containing all of the reagents listed above with the exception of ATP and the test compound of the present invention. The assay stock buffer solution (175 μl) was incubated in a 96 well plate with 5 μl of the test compound of the present invention at final concentrations spanning 0.002 μM to 30 μM at 30° C. for 10 min. Typically, a 12-point titration was conducted by preparing serial dilutions (from 10 mM compound stocks) with DMSO of the test compounds of the present invention in daughter plates. The reaction was initiated by the addition of 20 μl of ATP (final concentration 20 μM). Rates of reaction were obtained using a Molecular Devices Spectramax plate reader (Sunnyvale, Calif.) over 10 min at 30° C. The Ki values were determined from the rate data as a function of inhibitor concentration.

GSK3α TYR 279 = GSK3α TYR 279 (Homo sapiens (Human), UniProt P49840); experiment: GSK-3α p-TYR inhibition assay (western blotting of Jurkat cells); type: cell-based; settings: compound incubated o/n, western blot, read-out: GSK3a pTYR 279: IC50
Protocol: (§1) Compounds are screened for their ability to inhibit the phosphorylation of tyrosine (TYR) residues through the use of western blotting of Jurkat cells dosed with the compounds. The phosphorylation of the specific TYR residues tested are GSK3α TYR 279 and GSK3β TYR 216.
(§2) Jurkat cells are seeded at a density of 2×10^5 cells/well in a 12 well dish in starvation media (RPMI+1% FBS+P/S). Following starvation for 16 hours, the compound is dosed into each well at a final DMSO concentration of 0.3% and cells are incubated o/n at 37° C. 5% CO2. The next day, cells are spun down at 1500 rpm, washed with PBS, and lysed in 100 uL Laemli sample buffer with β-mercaptoethanol.
(§3) 15 microliters (uL) of cell lysates are loaded onto a 10% tris-glycine gel and run at 120 v for 2 hours or until dye front runs off of the gel. The protein is then transferred onto a PVDF membrane at 100 v for 60 min. PBST (PBS containing 0.1% Tween 20, such as 1 ml Tween per 1 L of PBS) is then made up and used for all washes and antibody incubations. The blot is blocked in 5% nonfat milk PBST for one hour.
(§4) The primary antibody (GSK-3α/β pTYR 279/216 at 1:1000 dilution Upstate cat #05-413) is then added in 5%-nonfat milk PBST overnight at 4° C. with gentle rocking. The blot is then washed in PBST for 5 min. This is then repeated 4 times. A secondary anti-mouse-HRP conjugated antibody (1:5000 dilution) is added for 60 min in 5% milk PBST. The blot is then washed in PBST for 5 min. This is also repeated 4 times. 3.0 mL of the developing solution (ECL plus Western Blotting Detection System from Amersham/GE cat # RPN2132) is made and then added. The solution is swirled over the blot for ˜30 sec. The blot is then developed using CL-Xposure clear blue X-ray film. GAPDH expression level is used as a loading control, (GAPDH antibody: santa cruz 25-778) at 1:10000 dilution.
(§5) For determination of GSK-3α and GSK-3β pTYR IC50, the density of the respective bands for each protein at specific compound concentration is compared to a no compound DMSO treated control cell sample present on each exposure.

[1] = system: β-catenin dependent TCF/LEF transcriptional activity; experiment: β-catenin stabilization protocol (β-lactamase reporter assay in Jurkat cells); type: cell-based; settings: Homo sapiens, 460/530 ratio, 50% of the maximum effect, read-out: Beta Catenin IC50
From the text: GSK-3 phosphorylation of β-catenin targets it to the proteosome for degradation. Inhibition of GSK-3 results in accumulation of β-catenin in the cytosol of cells which through interaction with the transcription factor TCF/LEF translocates to the nucleus and drives the transcription of Wnt-dependent genes. The assay is designed to determine the level of β-catenin dependent TCF/LEF transcriptional activity in a quantitative manner through the use of a β-lactamase reporter assay in Jurkat cells dosed with a compound.
Jurkat β-catenin cells are starved overnight in assay media (1% FBS, 1× Penstrep, RPMI) in the flask. The next day Jurkat β-catenin cells are seeded in 96 well flat bottom plates at a density of 50,000 cells/well in assay media in a volume of 100 ul. The compound is added to the well at a final DMSO concentration of 0.75% and incubated at 37° C. o/n. The next day, 20 uL of 6× CCF4 dye is added to the wells and incubated at room temperature for 1-2 hours. Plates are read on the Cytofluor 4000 series multiwell plate reader and the 460/530 ratio is determined.

GSK3β TYR 216 = GSK3β TYR 216 (Homo sapiens (Human), UniProt P49841); experiment: GSK3β p-TYR inhibition assay (western blotting of Jurkat cells); type: cell-based; settings: compound incubated o/n, western blot, read-out: GSK3b pTYR 216: IC50
Protocol: as §1, §2, §3, §4, §5

amyloid-β peptides = settings: mice over-expressing APP, treated over a three-week period; cited from earlier work
[2] = system: infarct size in rat brains; settings: after transient MCAO in rats; cited from earlier work

Chain of GSK-3β (AA 1-420) (P49841 whole entry, species assumed, the tested form may be a part): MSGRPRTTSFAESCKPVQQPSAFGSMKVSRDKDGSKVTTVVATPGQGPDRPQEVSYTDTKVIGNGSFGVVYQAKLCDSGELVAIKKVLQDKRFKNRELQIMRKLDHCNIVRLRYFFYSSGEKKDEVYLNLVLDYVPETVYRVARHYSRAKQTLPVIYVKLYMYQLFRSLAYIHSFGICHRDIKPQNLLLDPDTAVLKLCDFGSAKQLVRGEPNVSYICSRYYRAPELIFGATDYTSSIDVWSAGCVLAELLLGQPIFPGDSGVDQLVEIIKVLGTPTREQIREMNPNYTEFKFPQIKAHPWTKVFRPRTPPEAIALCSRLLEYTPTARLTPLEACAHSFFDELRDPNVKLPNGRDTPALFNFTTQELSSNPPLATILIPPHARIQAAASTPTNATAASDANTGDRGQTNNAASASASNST
Chain of GSK3β TYR 216 (P49841 whole entry): as the sequence (P49841 whole entry, species assumed, the tested form may be a part) above
Chain of GSK3α TYR 279 (P49840 whole entry): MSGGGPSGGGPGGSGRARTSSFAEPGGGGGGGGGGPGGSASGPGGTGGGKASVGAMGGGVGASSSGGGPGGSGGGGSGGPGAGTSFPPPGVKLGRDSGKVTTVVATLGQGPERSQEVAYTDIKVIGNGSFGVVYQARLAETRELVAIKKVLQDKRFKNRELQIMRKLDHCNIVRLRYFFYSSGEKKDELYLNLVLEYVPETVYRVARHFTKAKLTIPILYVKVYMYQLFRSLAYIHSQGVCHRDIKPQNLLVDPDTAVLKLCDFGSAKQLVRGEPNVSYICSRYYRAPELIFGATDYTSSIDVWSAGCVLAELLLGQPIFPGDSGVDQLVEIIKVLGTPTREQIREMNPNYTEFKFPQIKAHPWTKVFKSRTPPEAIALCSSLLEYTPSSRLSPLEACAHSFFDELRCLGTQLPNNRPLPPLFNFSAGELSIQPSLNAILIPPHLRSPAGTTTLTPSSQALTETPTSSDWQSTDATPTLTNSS

Row | Molecule | pKi (GSK-3β (AA 1-420)) | pIC50 (GSK3α TYR 279) | pIC50 [1] | pIC50 (GSK3β TYR 216) | decrease in amyloid-β peptide tissue levels (amyloid-β peptides) [%] | infarct size in rat brains [2]
1 | Fc1cnc2[nH]nc(Nc3cc(Cl)nc(C4CCCCC4)n3)c2c1 [Compound I-1] | > 7.60 | – | – | – | – | –
2 | CN1CCN(c2cc(Nc3n[nH]c4ccc(F)cc34)nc(C3CCCCC3)n2)CC1 [Compound I-2] | 6.30 to 7.60 | – | – | – | – | –
3 | Cc1nc(C2CCCCC2)nc(Nc2n[nH]c3ncc(F)cc23)c1C [Compound I-3] | > 7.60 | 9.15 | 5.43 | 7.89 | – | –
4 | Cc1nc(Nc2n[nH]c3ncc(F)cc23)cc(C2CCC(F)(F)CC2)n1 [Compound I-4] | > 7.60 | 9.00 | 6.68 | 7.70 | – | –
5 | Cc1nc(C2CCOCC2)nc(Nc2n[nH]c3ncc(F)cc23)c1C [Compound I-5] | – | 7.52 | < 5.00 | 6.10 | – | –
6 | Cc1cc(Nc2n[nH]c3ncc(F)cc23)nc(C2CCCCCC2)n1 [Compound I-8] | – | 9.52 | 6.22 | 8.00 | – | –
7 | Cc1cc(Nc2n[nH]c3ncc(F)cc23)nc(C2CCCC2)n1 [Compound I-9] | – | 8.70 | 5.85 | 7.32 | – | –
8 | Cc1cc(Nc2n[nH]c3ncc(F)cc23)nc(C2CCCCC2)n1 [Compound I-10] | – | 9.30 | 6.40 | 8.22 | – | –
9 | Cc1cc(Nc2n[nH]c3ccc(F)cc23)nc(C2CCCC2)n1 [Compound I-14] | > 7.60 | – | – | – | – | –
10 | [Li] [lithium] | – | – | – | – | > 50 | –
11 | IGF-1: insulin growth factor-1, a known GSK-3 inhibitor | – | – | – | – | – | reduced infarct size

Second part, led by results:

Row | pKi (GSK-3β (AA 1-420)) | pIC50 (GSK3α TYR 279) | pIC50 [1] | pIC50 (GSK3β TYR 216) | Molecule | decrease in amyloid-β peptide tissue levels (amyloid-β peptides) [%] | infarct size in rat brains [2]
12 | 6.30 to 7.60 | 7.52 | 5.32 | 6.70 | Cc1cc(Nc2n[nH]c3ccc(F)cc23)nc(C2CCOCC2)n1 [Compound I-15] | – | –
13 | – | 8.52 | 6.96 | 7.52 | Cc1cc(Nc2n[nH]c3ncc(F)cc23)nc(C2CCOCC2)n1 [Compound I-17] | – | –
14 | – | 9.00 | 5.62 | 6.52 | Cc1cc(Nc2n[nH]c3ncc(F)cc23)nc([C@H]2CCCC[C@@H]2C)n1 [Compound I-18] | – | –
15 | 6.30 to 7.60 | – | – | – | Cc1cc(Nc2n[nH]c3ncc(F)cc23)nc(C2CC2)n1 [Compound I-20] | – | –
16 | – | 8.52 | 6.00 | 7.70 | CC(C)(O)c1cc(Nc2n[nH]c3ncc(F)cc23)nc(C2CCCCC2)n1 [Compound I-21] | – | –
17 | – | 8.70 | 5.96 | 7.60 | Cc1cc(Nc2n[nH]c3ccc(F)cc23)nc(C2CCCCC2)n1 [Compound I-23] | – | –
